According to ChEMBL document CHEMBL3217731 (Medchemcomm, 2012):

Tests used:
Parameters in all cases: dose 2.5 mg/kg, route intraperitoneal
Serum [1] = assay: Drug uptake in C57BL/6J mouse serum at 2.5 mg/kg, ip measured at 10 to 60 mins by CE-UV analysis; format: ADME, organism-based; settings: in vivo
Brain = assay: Drug uptake in C57BL/6J mouse brain at 2.5 mg/kg, ip measured at 4 hrs by CE-UV analysis; format: ADME, organism-based; settings: in vivo
[2] = Drug uptake in C57BL/6J mouse eye at 2.5 mg/kg, ip measured at 10 hrs by CE-UV analysis; format: ADME, organism-based; settings: in vivo
Serum [3] = assay: Half life in C57BL/6J mouse serum at 2.5 mg/kg, ip; format: ADME, organism-based; settings: in vivo
[4] = Drug uptake in C57BL/6J mouse CSF at 2.5 mg/kg, ip measured at 4 to 10 hrs by CE-UV analysis; format: ADME, organism-based, Cerebrospinal fluid; settings: in vivo
Serum [5] = assay: AUC in C57BL/6J mouse serum at 2.5 mg/kg, ip by CE-UV analysis; format: ADME, organism-based, Plasma; settings: in vivo
[6] = AUC in C57BL/6J mouse CSF at 2.5 mg/kg, ip by CE-UV analysis; format: ADME, organism-based

For `CN1C(=O)N[C@H]2[C@@H]3NC(=O)c4ccc(Br)n4[C@@H]3C[C@]21O` [AGELASTATIN A], the Drug uptake (Serum [1]) was “Active”, the Drug uptake (Brain) was “Active” and the Drug uptake [2] was “Active”. The t1/2 (Serum [3]) was 12 h, the Drug uptake [4] was “Active” and the AUC (Serum [5]) was 33.8 µM·h. For the same compound, the AUC [6] was 3.41 µM·h.
